The text below walks through data of patent US9034899B2, “Aryl, heteroaryl, and heterocycle substituted tetrahydroisoquinolines and use thereof” (Albany Molecular Research, Inc., priority 2009, dated 2015).

The structures appear in SMILES notation.

The target of assay [1] is hDAT (Homo sapiens (Human), UniProt Q01959). Nature of the assay: DAT radioligand binding assay ([125I]RTI-55, HEK-293 membranes). The settings on record: (+)-enantiomers; read-out: DAT IC50. Here is the method: (§1) Recombinant HEK-293 cells expressing either the hSERT, hDAT, or hNET proteins were harvested from T-175 flasks as follows. The medium was removed from the flasks and the cells rinsed with HBSS without Ca and without Mg. The cells were then incubated for 5-10 minutes in 10 mM Tris-Cl, pH 7.5, 5 mM EDTA before the cells were lifted with a combination of pipetting and scraping, as needed. The cell suspension was collected into centrifuge bottles and homogenized for 30 seconds with a Polytron homogenizer. The suspension was centrifuged for 30 minutes at 32,000×g, 4° C. The supernatant was decanted and the pellet resuspended and homogenized in 50 mM Tris-Cl, pH 7.5, 1 mM EDTA for 10 seconds. The suspension was then centrifuged again for 30 minutes at 32,000×g, 4° C. The supernatant was decanted and the pellet resuspended in 50 mM Tris-Cl, pH 7.5, 1 mM EDTA and briefly homogenized. A Bradford assay (Bio-rad) was performed and the membrane preparation diluted to 2 mg/ml with 50 mM Tris-Cl, pH 7.5, 1 mM EDTA. Aliquots were prepared, and then frozen and stored at −80° C.
Compounds were dissolved in 100% DMSO at a concentration 100 times the desired highest assay concentration, serially diluted 1:3 in 100% DMSO, and 0.4 μl/well of each solution was dispensed to a Nunc polypropylene, round bottom, 384-well plate. 100% inhibition is defined with 0.4 μl/well of 1 mM GBR-12935 dissolved in DMSO. 20 ul/well of a 2× membrane preparation (12.5 μg/ml in 30 mM sodium phosphate buffer, pH 7.9 at 4° C.) and 20 μl/well of a 2× radioligand solution ([…] [^125I]RTI-55 in 30 mM sodium phosphate buffer, pH 7.9 at 4° C.) were added to the well and the reaction incubated for 1 hour at room temperature. The contents of the assay plate were then transferred to a Millipore MultiscreenHTS GF/B filter plate which was pretreated with 0.5% PEI for at least one hour. The plate was vacuum-filtered and washed with 7 washes of 100 μl/well 50 mM Tris-Cl, pH 7.5, 120 mM NaCl, 5 mM KCl chilled to 4° C. The filtration and washing were completed in less than 90 seconds. The plates were air-dried overnight, 12 μl/well of MicroScint scintillation fluid added, and the plates counted in a Trilux.
The raw data was normalized to percent inhibition using control wells defining 0% (DMSO only) and 100% (selective inhibitor) inhibition which were run on each plate. Each plate was run in triplicate, and the concentration response curve thus generated was fit using the four-parameter dose response equation, Y=Bottom+(Top-Bottom)/(1+10^((LogIC50−X)*HillSlope)) in order to determine the IC50 value for each compound. The radioligand concentration chosen for each assay corresponds to the Kd concentration determined through saturation binding analysis for each assay.

Assay [2] has as its system DAT. The assay is described as follows: Occupancy assay, ex vivo binding in brain tissue, DAT. The text has this: The general procedure for brain tissue collection and transporter occupancy assessment is briefly described as follows. Mice were sacrificed by asphyxiation in CO2, rats by decapitation and dogs by IV injection of euthanasia solution. For mice and rats, after the brains were removed from the skull, the forebrain tissue (removal of the brainstem and cerebellum) was used for SERT, NET, and DAT occupancy assessment. In dogs, the striatum was dissected for DAT occupancy and the remaining forebrain tissue (without the striatum, brainstem, and cerebellum) was used for SERT and NET occupancy assessment. The brain tissues were frozen in chilled isopentane and stored at −80° C. until homogenization.
The brain tissues were thawed and then homogenized using a polytron homogenizer (Kinematica). Sample aliquots were frozen immediately and stored at −80° C. Protein content was measured for each sample using a Coomassie protein assay kit (Pierce).
On the day of ex vivo binding for occupancy assessment, frozen sample aliquots were thawed and needle homogenized, and 100 μg of the tissue was incubated for SERT, NET, and DAT binding under assay conditions summarized in Table 2. […] The filters were washed twice with ice-cold incubation buffer, punched into a clear plate prior to the addition of 200 ul scintillation fluid per well. Radioligand was measured using a Wallac Microbeta liquid scintillation counter.
The specific binding was calculated by subtracting the value of the non-specific binding from that of the total binding in each sample. The percent occupancy was calculated as (1−specific binding in drug treated/specific binding in vehicle treated)×100%. […] Nonlinear regression was performed using GraphPad Prism version 3.00 (GraphPad Software, San Diego, Calif.).

In assay [3] the target is hSERT (Homo sapiens (Human), UniProt P31645). The assay is described as follows: SERT radioligand binding assay ([125I]RTI-55, HEK-293 membranes). To be noted: (+)-enantiomers; read-out: SERT IC50. As for the experimental part:
as §1, with “The” for “Recombinant HEK-293 cells expressing either the hSERT, hDAT, or hNET proteins were harvested from T-175 flasks as follows. The”
Compounds were dissolved in 100% DMSO at a concentration 100 times the desired highest assay concentration, serially diluted 1:3 in 100% DMSO, and 0.4 μl/well of each solution was dispensed to a Nunc polypropylene, round bottom, 384-well plate. […] The contents of the assay plate were then transferred to a Millipore MultiscreenHTS GF/B filter plate which was pretreated with 0.5% PEI for at least one hour. The plate was vacuum filtered and washed with 7 washes of 100 μl/well 50 mM Tris-Cl, pH 7.5, 120 mM NaCl, 5 mM KCl chilled to 4° C. The filtration and washing were completed in less than 90 seconds. The plates were air-dried overnight, 12 μl/well of MicroScint scintillation fluid added, and the plates counted in a Trilux.
Each plate was run in triplicate, and the concentration response curve thus generated was fit using the four-parameter dose response equation, Y=Bottom+(Top-Bottom)/(1+10^((LogIC50−X)*HillSlope)) in order to determine the IC50 value for each compound. The radioligand concentration chosen for each assay corresponds to the Kd concentration determined through saturation binding analysis for each assay.

Chain of hDAT (Q01959 whole entry): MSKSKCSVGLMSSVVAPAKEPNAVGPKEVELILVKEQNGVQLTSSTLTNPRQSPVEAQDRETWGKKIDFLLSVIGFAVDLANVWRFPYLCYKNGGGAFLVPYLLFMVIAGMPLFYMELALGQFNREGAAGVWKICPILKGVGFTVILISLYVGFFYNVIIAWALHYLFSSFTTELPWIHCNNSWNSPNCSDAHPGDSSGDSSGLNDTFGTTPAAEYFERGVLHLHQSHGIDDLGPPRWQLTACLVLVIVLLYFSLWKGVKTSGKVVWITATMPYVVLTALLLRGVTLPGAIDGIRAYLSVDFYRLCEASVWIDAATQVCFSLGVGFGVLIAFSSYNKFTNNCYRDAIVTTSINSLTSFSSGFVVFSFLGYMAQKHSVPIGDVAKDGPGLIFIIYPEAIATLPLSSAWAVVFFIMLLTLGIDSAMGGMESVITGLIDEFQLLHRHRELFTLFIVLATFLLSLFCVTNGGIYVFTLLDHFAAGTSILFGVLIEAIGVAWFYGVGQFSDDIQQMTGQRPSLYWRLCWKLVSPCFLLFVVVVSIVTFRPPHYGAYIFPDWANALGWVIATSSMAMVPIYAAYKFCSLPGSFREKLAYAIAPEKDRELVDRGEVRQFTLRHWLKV
Chain of hSERT (P31645 whole entry): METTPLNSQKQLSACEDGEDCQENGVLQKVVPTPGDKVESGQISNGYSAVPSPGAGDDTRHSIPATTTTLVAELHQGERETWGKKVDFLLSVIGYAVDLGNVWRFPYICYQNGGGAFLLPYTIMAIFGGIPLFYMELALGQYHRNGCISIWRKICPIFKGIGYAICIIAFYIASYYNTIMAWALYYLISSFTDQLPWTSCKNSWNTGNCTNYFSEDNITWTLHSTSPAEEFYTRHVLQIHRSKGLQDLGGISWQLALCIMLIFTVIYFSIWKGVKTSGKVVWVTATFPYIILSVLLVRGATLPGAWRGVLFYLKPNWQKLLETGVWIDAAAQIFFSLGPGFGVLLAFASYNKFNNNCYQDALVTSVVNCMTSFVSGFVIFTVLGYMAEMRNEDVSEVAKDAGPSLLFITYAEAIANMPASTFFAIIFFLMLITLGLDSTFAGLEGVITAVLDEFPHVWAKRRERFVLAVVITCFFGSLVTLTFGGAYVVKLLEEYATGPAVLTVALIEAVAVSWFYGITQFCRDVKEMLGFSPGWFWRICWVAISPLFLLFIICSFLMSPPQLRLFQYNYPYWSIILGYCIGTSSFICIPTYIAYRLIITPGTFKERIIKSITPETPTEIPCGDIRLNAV

As for `CC1(C)NCC(c2ccc(Cl)c(Cl)c2)c2ccc(-c3ccc4ncnn4c3)cc21` (stereo not drawn) [Example 40, 4-(3,4-dichlorophenyl)-7-([1,2,4]triazolo[1,5-a]pyridin-6-yl)-1,1-dimethyl-1,2,3,4-tetrahydroisoquinoline], the IC50 – broadly, the concentration that inhibits the measured activity by half – in assay [1] was 2.1 nM; in assay [3] it was 4.2 nM. For the same compound, in assay [2] (dose 3 mg/kg, time point 3 h), the “DAT Occupancy %” value was determined as 78%.
Turning to `Nc1ccc(-c2ccc3c(c2)CNCC3c2ccc(Cl)c(Cl)c2)nn1` (stereo not drawn) [Example 34, 6-(4-(3,4-dichlorophenyl)-1,2,3,4-tetrahydroisoquinolin-7-yl)pyridazin-3-amine], the IC50 in assay [1] stood at 7.1 nM; in assay [3], 1.8 nM. Moreover, the “DAT Occupancy %” value in assay [2] (dose 1 mg/kg, time point 1 h) is 0%.
In the case of `CC1(C)NCC(c2ccc(Cl)c(Cl)c2)c2ccc(-c3ccc(N)nn3)cc21` (stereo not drawn) [Example 13, 4-(3,4-dichlorophenyl)-7-(6-aminopyridazin-3-yl)-1,1-dimethyl-1,2,3,4-tetrahydroisoquinoline], the figures for the IC50 in assay [1] and in assay [3] were 2.4 nM and 2.3 nM, respectively. For the same compound, the “DAT Occupancy %” value in assay [2] (dose 3 mg/kg, time point 3 h) is 53%.
As to `Cc1noc(C)c1-c1ccc2c(c1)CNCC2c1ccc(Cl)c(Cl)c1` (stereo not drawn) [Example 25, 4-(4-(3,4-dichlorophenyl)-1,2,3,4-tetrahydroisoquinolin-7-yl)-3,5-dimethylisoxazole], the half-maximal inhibitory concentration (IC50) was found to be 47.3 nM in assay [1] and 4.9 nM in assay [3]. In assay [2] (dose 1 mg/kg, time point 3 h), the “DAT Occupancy %” value is listed as 0%.
On to `Clc1ccc(C2CNCc3cc(-c4cccnn4)ccc32)cc1Cl` (stereo not drawn) [Example 33, 4-(3,4-dichlorophenyl)-7-(pyridazin-3-yl)-1,2,3,4-tetrahydroisoquinoline], for which the values for the half-maximal inhibitory concentration (IC50) in assay [1] and in assay [3] were 15.4 nM and 6.2 nM, respectively. In assay [2] (dose 1 mg/kg, time point 1 h), the “DAT Occupancy %” value is on record as 8%.
On to `CC1(C)NCC(c2ccc(Cl)c(Cl)c2)c2ccc(-c3cccnn3)cc21` (single isomer, unassigned) [Example 9, 4-(3,4-dichlorophenyl)-1,1-dimethyl-7-(pyridazin-3-yl)-1,2,3,4-tetrahydroisoquinoline], for which the half-inhibitory concentration (IC50) in assay [1] amounted to 1.8 nM; in assay [3] it was 4.8 nM. Moreover, in assay [2] (dose 1 mg/kg, time point 1 h), the “DAT Occupancy %” value was 71%.
With `FC(F)Oc1ccc(-c2ccc3c(c2)CNCC3c2ccc(Cl)c(Cl)c2)nn1` (stereo not drawn) [Example 12, 4-(3,4-dichlorophenyl)-7-(6-(difluoromethoxy)pyridazin-3-yl)-1,2,3,4-tetrahydroisoquinoline], the concentration for half-maximal inhibition (IC50) in assay [1] is 50.2 nM; in assay [3], 3.6 nM. The “DAT Occupancy %” value in assay [2] (dose 1 mg/kg, time point 3 h) was 15%.
